According to patent publication US4382940A (priority 1979, dated 1983):

System: reserpine-induced blepharospasm
Assay: antagonism to reserpine-induced blepharospasm
Format: in vivo, male mice
Details: Mus musculus, po, 3 h, read-out: Reserpine antagonism, Blepharospasm (ED50)
Description: (§1) The tests were performed in an air-conditioned room at the constant temperature of 19°±1° C. Randomized groups of male mice were respectively treated by gavage with appropriate screening doses (from a maximum of 25 mg/kg below) of the test compounds, suspended in the vehicle (Methocel 0.5%; 1 ml/100 g b.w.), or with the vehicle alone.
(§2) One hour later the animals received an i.p. injection of reserpine (1.5 mg/kg; 1 ml/100 g b.w.), and one of the control groups the same volume of the vehicle alone (blank controls). Three hours after pretreatments, i.e. two hours after reserpine or vehicle treatments, blepharospasm was evaluated in scores as proposed by RUBIN et al. (J. Pharmacol., 120:125, 1957).
`CC(=CC#N)OC[C@@H]1C[C@@H]2c3cccc4[nH]cc(c34)C[C@H]2N(C)C1` [355/1311, 6-Methyl-8-[(3-methylacrylic nitrile)-3-oxymethyl]-ergoline] gave an ED50 of 1.5 mg/kg.
`Cc1[nH]c2cccc3c2c1C[C@@H]1[C@@H]3C[C@@H](COC2=CC(=O)CC2)CN1C` [355/1301, 2,6-Dimethyl-8-[(2-cyclopentenon)-3-oxymethyl]-ergoline] showed an ED50 of 0.46 mg/kg.
Compound `CN1C[C@H](COC2=CC(=O)CC2)C[C@@H]2c3cccc4[nH]cc(c34)C[C@H]21` [355/1228, 6-Methyl-8-[(2-cyclopentenon)-3-oxymethyl]-ergoline] has an ED50 of 0.14 mg/kg.
`CN1C[C@H](CNC2=CC(=O)CC2)C[C@@H]2c3cccc4[nH]cc(c34)C[C@H]21` [355/1206, 6-Methyl-8-[(2-cyclopentenon)-3-aminomethyl]-ergoline] gave an ED50 of 3.1 mg/kg.
For `CN1C[C@H](COC2=CC(=O)CC2)C[C@@H]2c3cccc4[nH]c(Cl)c(c34)C[C@H]21` [355/1335, 2-Chloro-6-methyl-8-[(2-cyclopentenon)-3-oxymethyl]-ergoline], the ED50 was 0.2 mg/kg.

Same assay, conditions: Mus musculus, po, 3 h; gavage 1 h before reserpine 1.5 mg/kg i.p.; scored 2 h after reserpine; male mice; read-out: Reserpine antagonism, Blepharospasm (ED50)
Compound `CN(C)CCCN1c2ccccc2CCc2ccccc21` [imipramine, reference compound] has an ED50 of 3.1 mg/kg.

System: reserpine-induced hypothermia
Assay: antagonism to reserpine-induced hypothermia
Format: in vivo
Details: Mus musculus, po; gavage 1 h before reserpine 1.5 mg/kg i.p.; rectal temperature 2 h after blepharospasm evaluation; male mice
Description: as §1, §2
Two hours after the above-mentioned evaluation the rectal temperature of the animals was recorded by an appropriate probe connected to a digital thermometer (ELLAB DU-3).
Work on `CC(=CC#N)OC[C@@H]1C[C@@H]2c3cccc4[nH]cc(c34)C[C@H]2N(C)C1` [355/1311, 6-Methyl-8-[(3-methylacrylic nitrile)-3-oxymethyl]-ergoline] yielded an ED50 of 3.4 mg/kg.
`Cc1[nH]c2cccc3c2c1C[C@@H]1[C@@H]3C[C@@H](COC2=CC(=O)CC2)CN1C` [355/1301, 2,6-Dimethyl-8-[(2-cyclopentenon)-3-oxymethyl]-ergoline] gave an ED50 of 0.57 mg/kg.
`CN(C)CCCN1c2ccccc2CCc2ccccc21` [imipramine, reference compound] showed an ED50 of 18.2 mg/kg.
`CN1C[C@H](COC2=CC(=O)CC2)C[C@@H]2c3cccc4[nH]cc(c34)C[C@H]21` [355/1228, 6-Methyl-8-[(2-cyclopentenon)-3-oxymethyl]-ergoline] showed an ED50 of 0.39 mg/kg.
`CN1C[C@H](CNC2=CC(=O)CC2)C[C@@H]2c3cccc4[nH]cc(c34)C[C@H]21` [355/1206, 6-Methyl-8-[(2-cyclopentenon)-3-aminomethyl]-ergoline] showed an ED50 of 7.7 mg/kg.
With `CN1C[C@H](COC2=CC(=O)CC2)C[C@@H]2c3cccc4[nH]c(Cl)c(c34)C[C@H]21` [355/1335, 2-Chloro-6-methyl-8-[(2-cyclopentenon)-3-oxymethyl]-ergoline] the ED50 was 0.3 mg/kg.

System: central amphetamine-induced hypothermia
Assay: antagonism to central amphetamine-induced hypothermia
Details: Mus musculus, po, read-out: Amphetamine antagonism (ED50)
Work on `CC(=O)C=C(C)OC[C@@H]1C[C@@H]2c3cccc4[nH]cc(c34)C[C@H]2N(C)C1` [355/1171, 6-Methyl-3-[(3-buten-2-one-4-methyl)-4-oxymethyl]-ergoline] yielded an ED50 of 0.023 mg/kg.
With `CSc1[nH]c2cccc3c2c1C[C@@H]1[C@@H]3C[C@@H](COC=CC(C)=O)CN1C` [355/1357, 2-Thiomethyl-6-methyl-8-[(3-buten-2-one)-4-oxymethyl]-ergoline] the ED50 was 2.5 mg/kg.
For `CN1C[C@H](CNC2=CC(=O)CC2)C[C@@H]2c3cccc4c3c(cn4C)C[C@H]21` [355/1295, 1,6-Dimethyl-8-[(2-cyclopentenon)-3-aminomethyl]-ergoline], the ED50 was 1.8 mg/kg.
`CO[C@]12C[C@@H](COC3=CC(=O)CC3)CN(C)[C@@H]1Cc1cn(C)c3cccc2c13` [355/1240, 1,6-Dimethyl-8-[(2-cyclopentenon)-3-oxymethyl]-10-methoxyergoline] gave an ED50 of 1.8 mg/kg.
`CCCN1C[C@H](COC=CC(C)=O)C[C@@H]2c3cccc4[nH]cc(c34)C[C@H]21` [355/1363, 6-Propyl-8-[(3-buten-2-one)-4-oxymethyl]-ergoline] gave an ED50 of 2.4 mg/kg.

System: not listed separately
Assay: orientative acute toxicity (7 days observation, Irwin's observational assessment of mouse behavior)
Details: mouse, in vivo, po
Compound `CC(=CC#N)OC[C@@H]1C[C@@H]2c3cccc4[nH]cc(c34)C[C@H]2N(C)C1` [355/1311, 6-Methyl-8-[(3-methylacrylic nitrile)-3-oxymethyl]-ergoline] has an LD50 at 168 h of 300 mg/kg.
`Cc1[nH]c2cccc3c2c1C[C@@H]1[C@@H]3C[C@@H](COC2=CC(=O)CC2)CN1C` [355/1301, 2,6-Dimethyl-8-[(2-cyclopentenon)-3-oxymethyl]-ergoline] gave an LD50 at 168 h of 300 mg/kg.
Work on `CC(=O)C=C(C)OC[C@@H]1C[C@@H]2c3cccc4[nH]cc(c34)C[C@H]2N(C)C1` [355/1171, 6-Methyl-3-[(3-buten-2-one-4-methyl)-4-oxymethyl]-ergoline] yielded an LD50 at 168 h greater than 800 mg/kg.
Compound `CSc1[nH]c2cccc3c2c1C[C@@H]1[C@@H]3C[C@@H](COC=CC(C)=O)CN1C` [355/1357, 2-Thiomethyl-6-methyl-8-[(3-buten-2-one)-4-oxymethyl]-ergoline] has an LD50 at 168 h greater than 300 mg/kg.
With `CN1C[C@H](COC2=CC(=O)CC2)C[C@@H]2c3cccc4[nH]cc(c34)C[C@H]21` [355/1228, 6-Methyl-8-[(2-cyclopentenon)-3-oxymethyl]-ergoline] the LD50 at 168 h was greater than 600 mg/kg.
Compound `CN1C[C@H](CNC2=CC(=O)CC2)C[C@@H]2c3cccc4c3c(cn4C)C[C@H]21` [355/1295, 1,6-Dimethyl-8-[(2-cyclopentenon)-3-aminomethyl]-ergoline] has an LD50 at 168 h greater than 400 mg/kg.
`CO[C@]12C[C@@H](COC3=CC(=O)CC3)CN(C)[C@@H]1Cc1cn(C)c3cccc2c13` [355/1240, 1,6-Dimethyl-8-[(2-cyclopentenon)-3-oxymethyl]-10-methoxyergoline] showed an LD50 at 168 h of 200 mg/kg.
`CN1C[C@H](CNC2=CC(=O)CC2)C[C@@H]2c3cccc4[nH]cc(c34)C[C@H]21` [355/1206, 6-Methyl-8-[(2-cyclopentenon)-3-aminomethyl]-ergoline] gave an LD50 at 168 h greater than 800 mg/kg.
In the case of `CN1C[C@H](COC2=CC(=O)CC2)C[C@@H]2c3cccc4[nH]c(Cl)c(c34)C[C@H]21` [355/1335, 2-Chloro-6-methyl-8-[(2-cyclopentenon)-3-oxymethyl]-ergoline], the LD50 at 168 h is reported as 200 mg/kg.
Compound `CCCN1C[C@H](COC=CC(C)=O)C[C@@H]2c3cccc4[nH]cc(c34)C[C@H]21` [355/1363, 6-Propyl-8-[(3-buten-2-one)-4-oxymethyl]-ergoline] has an LD50 at 168 h of 400 mg/kg.

System: mouse
Assay: as above
Details: in mice; imipramine compared with title compounds
In the case of `CN(C)CCCN1c2ccccc2CCc2ccccc21` [imipramine, reference compound], the “orientative acute toxicity (in words)” value is reported as “quite higher orientative acute toxicity”.
